In PMC9199881 (Clinical and Translational Science, 2022):

Assays:
[1] = test system: healthy subjects; assay: Safety assessment; format: in vivo, human
[2] = test system: cytochrome P450 3A4 (CYP3A4); details: enzymatic studies; cited from earlier work
[3] = test system: rat antibody-mediated Arthus model; details: cited from earlier work
[4] = Plasma pharmacokinetics, Part B; details: for AUC(0-inf): AUC0–∞
[5] = test system: mouse immune thrombocytopenia model; details: cited from earlier work
[6] = test system: collagen-induced arthritis in rats; details: cited from earlier work
[7] = test system: healthy subjects; assay: Safety assessment; format: in vivo, human; details: Part A
[8] = Part B, 400 mg rilzabrutinib plus ritonavir
[9] = Part B, rilzabrutinib 400 mg + ritonavir 100 mg, first column of the group
[10] = Part B, rilzabrutinib 400 mg + ritonavir 100 mg, second column of the group
[11] = human, in vivo, 400 mg, Mean (SD), 400 mg single dose alone
[12] = human, in vivo, 400 mg, Median (range), 400 mg single dose alone

What does the source list for `CC(C)(/C=C(\C#N)C(=O)N1CCC[C@@H](n2nc(-c3ccc(Oc4ccccc4)cc3F)c3c(N)ncnc32)C1)N1CCN(C2COC2)CC1` [Rilzabrutinib, rilzabrutinib]?
serious TEAEs or deaths ([1]; Part B): no serious TEAEs or deaths; Treatment-related TEAE: Abdominal pain, n (%) ([1]; Part B, 400 mg alone): 3 (9.4) n (%); Treatment-related TEAE: Diarrhea, n (%) ([1]; Part B, 400 mg alone): 9 (28.1) n (%); Treatment-related TEAE: Dizziness, n (%) ([1]; Part B, 400 mg alone): 0 n (%); Treatment-related TEAE: Dysgeusia, n (%) ([1]; Part B, 400 mg alone): 1 (3.1) n (%); Treatment-related TEAE: Frequent bowel movements, n (%) ([1]; Part B, 400 mg alone): 0 n (%); Treatment-related TEAE: Gastrointestinal disorders, n (%) ([1]; Part B, 400 mg alone): 13 (40.6) n (%); Treatment-related TEAE: Headache, n (%) ([1]; Part B, 400 mg alone): 1 (3.1) n (%); Treatment-related TEAE: Herpex simplex, n (%) ([1]; Part B, 400 mg alone): 0 n (%); Treatment-related TEAE: Infections and infestations, n (%) ([1]; Part B, 400 mg alone): 0 n (%); Treatment-related TEAE: Lethargy, n (%) ([1]; Part B, 400 mg alone): 0 n (%); Treatment-related TEAE: Nervous system disorders, n (%) ([1]; Part B, 400 mg alone): 2 (6.3) n (%); Treatment-related TEAE: Somnolence, n (%) ([1]; Part B, 400 mg alone): 0 n (%); Treatment-related TEAE: Subjects with ≥1 TEAE, n (%) ([1]; Part B, 400 mg alone): 14 (43.8) n (%); Treatment-related TEAE: Vomiting, n (%) ([1]; Part B, 400 mg alone): 0 n (%); incidence of treatment-related TEAEs ([1]; Part B, 400 mg alone): 43.8%; participants with diarrhea ([1]; Part B, 400 mg alone): 28.1%; incidence of treatment-related TEAEs [1, 8]: 44.1%; participants with diarrhea [1, 8]: 35.3%; moderate (grade 2) rilzabrutinib related TEAEs ([1]; Part B, nausea with 400 mg and diarrhea with 400 mg plus 100 mg ritonavir, in two participants): two moderate (grade 2) rilzabrutinib related TEAEs; Treatment-related TEAE: Abdominal pain, n (%) [1, 9]: 0 n (%); Treatment-related TEAE: Diarrhea, n (%) [1, 9]: 12 (35.3) n (%); Treatment-related TEAE: Dizziness, n (%) [1, 9]: 0 n (%); Treatment-related TEAE: Dysgeusia, n (%) [1, 9]: 2 (5.9) n (%); Treatment-related TEAE: Frequent bowel movements, n (%) [1, 9]: 1 (2.9) n (%); Treatment-related TEAE: Gastrointestinal disorders, n (%) [1, 9]: 14 (41.2) n (%); Treatment-related TEAE: Headache, n (%) [1, 9]: 0 n (%); Treatment-related TEAE: Herpex simplex, n (%) [1, 9]: 1 (2.9) n (%); Treatment-related TEAE: Infections and infestations, n (%) [1, 9]: 1 (2.9) n (%); Treatment-related TEAE: Lethargy, n (%) [1, 9]: 0 n (%); Treatment-related TEAE: Nervous system disorders, n (%) [1, 9]: 3 (8.8) n (%); Treatment-related TEAE: Somnolence, n (%) [1, 9]: 2 (5.9) n (%); Treatment-related TEAE: Vomiting, n (%) [1, 9]: 0 n (%); Treatment-related TEAE: Abdominal pain, n (%) [second column of the group] [1, 10]: 0 n (%); Treatment-related TEAE: Diarrhea, n (%) [second column of the group] [1, 10]: 12 n (%); Treatment-related TEAE: Dizziness, n (%) [second column of the group] [1, 10]: 0 n (%); Treatment-related TEAE: Dysgeusia, n (%) [second column of the group] [1, 10]: 2 n (%); Treatment-related TEAE: Headache, n (%) [second column of the group] [1, 10]: 0 n (%); Treatment-related TEAE: Herpex simplex, n (%) [second column of the group] [1, 10]: 1 n (%); Treatment-related TEAE: Lethargy, n (%) [second column of the group] [1, 10]: 0 n (%); Treatment-related TEAE: Nausea, n (%) [second column of the group] [1, 10]: 4 n (%); Treatment-related TEAE: Somnolence, n (%) [second column of the group] [1, 10]: 2 n (%); Treatment-related TEAE: Vomiting, n (%) [second column of the group] [1, 10]: 0 n (%); changes in clinical chemistry ([1]; at the studied doses): No clinically meaningful changes; safety profile ([1]; at the studied doses): acceptable safety profile; interaction with CYP3A4 [2]: substrate for and weak inhibitor; anti-inflammatory effects [3]: rapid and significant anti‐inflammatory effects; Tmax, Median (range) ([4]; 400 mg single dose alone): 2.1 (0.6–4.1) h; AUC(0-t) ([4]; human, in vivo, 400 mg, AUC0–last, Mean (SD), 400 mg single dose alone): 455 ng·h/mL; AUC(0-inf) [4, 11]: 454 ng·h/mL; AUC(0-inf) [4, 12]: 312 ng·h/mL; Cmax [4, 11]: 144 ng/mL; Cmax [4, 12]: 102 ng/mL; Tmax [4, 11]: 2.1 h; Tmax [4, 12]: ~2.1 h; half-life ([4]; human, in vivo, 400 mg, t 1/2, Mean (SD), 400 mg single dose alone): 3.9 h; half-life ([4]; human, in vivo, 400 mg, t 1/2, Median (range), 400 mg single dose alone): 3.1 h; increase in rilzabrutinib Cmax with ritonavir ([4]; rilzabrutinib 400 mg + ritonavir 100 mg BID vs 400 mg alone): 5 fold; anti-inflammatory effects [5]: rapid and significant anti‐inflammatory effects; effect on disease [6]: dose‐dependent reduction and complete reversal of disease; serious TEAEs, deaths, or TEAEs leading to study drug interruption/discontinuation [7]: no serious TEAEs, deaths, or TEAEs leading to study drug interruption/discontinuation; severity of rilzabrutinib-related TEAEs [7]: mostly mild (grade 1); participants with TEAEs deemed related to rilzabrutinib treatment ([7]; 100 mg plus ritonavir 100 mg, one event in one participant): 9.1%; participants with TEAEs deemed related to rilzabrutinib treatment (GI-related) ([7]; 1200 mg, five events in three participants): 75%; rilzabrutinib-related TEAEs ([7]; following 100 mg rilzabrutinib): no rilzabrutinib‐related TEAEs reported; Treatment-related TEAE: Diarrhea, n (%) ([7]; rilzabrutinib 100 mg): 0 n (%); Treatment-related TEAE: Dizziness, n (%) ([7]; rilzabrutinib 100 mg): 0 n (%)
